Measured values reported in patent US20180230143A1, “INHIBITORS OF NHR2 AND/OR RUNX1/ETO-TETRAMERIZATION” (Heinrich-Heine-Universität Düsseldorf, priority 2013, published 2018).
Read-outs that look alike come from different tables or passages of the source. One block for each compound: values may come before it.

Assays:
Assay type in all cases: biochemical
[1] = target: T1, NHR2 protein (Homo sapiens, UniProt Q06455); assay: BS3 cross-linking assay of NHR2 oligomers; settings: for inhibition of NHR2 tetramerization (reduction of BS3 cross-linked NHR2 oligomers): c=1100 μM
T1 construct: the wild type NHR2 tetramerization domain or the homologous BCR tetramerization domain (highlighted) are optionally enclosed by an N-terminal RUNX1 domain; His6 (C); made in house; host or cells: E. coli BL21(DE3)
T1 sequence (Q06455 334-400): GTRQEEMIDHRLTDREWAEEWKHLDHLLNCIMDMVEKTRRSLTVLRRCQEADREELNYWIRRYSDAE
Description: Preferably, for the cross-linking assay, purified NHR2 protein or NHR2-containing protein (5 μM) was incubated with the peptides at 4° C. for 1 h. The BS^3 (Bis[sulfosuccinimidyl] suberate) crosslink-reaction was performed at a final concentration of 1 mM for 30 min at RT. Tris-HCl (0.05 M, pH 7.4) was added to the reaction mix and incubated for 10 min to stop the reaction. […] was analyzed by western blotting. For protein detection, the membrane was incubated with a primary anti-myc antibody (9E10, Santa Cruz) and a secondary HRP-coupled antibody (goat anti-mouse IgG-HRP, Santa Cruz). Preferably, the cross-linking assay is as further described in the experimental section.
Purified NHR2 protein (5 μM) was incubated with the peptides at 4° C. for 1 h. The BS^3 (Bis[sulfosuccinimidyl] suberate) crosslink-reaction was performed at a final concentration of 1 mM for 30 min at RT. Tris-HCl (0.05 M, pH 7.4) was added to the reaction mix and incubated for 10 min to stop the reaction. Protein-oligomerization was analyzed by western blotting. For protein detection, the membrane was incubated with a primary anti-myc antibody (9E10, Santa Cruz) and a secondary HRP-coupled antibody (goat anti-mouse IgG-HRP, Santa Cruz).

[2] = target: T2, RUNX1-NHR2 protein (Homo sapiens, UniProt Q01196+Q06455); assay: ELISA: tetramer-dependent binding of RUNX1-NHR2 protein to immobilized RUNX3 oligonucleotide; settings: for IC50: inhibition of tetramerization of the RUNX1-NHR2 protein; for inhibition at 2000 µM / inhibition at 1000 µM: read-out: ELISA Inhibition [%] NHR2; for inhibition of tetramer-dependent binding of the RUNX1-NHR2 protein to immobilized RUNX3 oligonucleotide, ELISA: [P1]=500 μM and [PPIM]=2000 μM in ELISA
T2 construct: the wild type NHR2 tetramerization domain or the homologous BCR tetramerization domain (highlighted) are optionally enclosed by an N-terminal RUNX1 domain; His6 (C); made in house; host or cells: E. coli BL21(DE3)
T2 sequence (Q01196+Q06455 fused): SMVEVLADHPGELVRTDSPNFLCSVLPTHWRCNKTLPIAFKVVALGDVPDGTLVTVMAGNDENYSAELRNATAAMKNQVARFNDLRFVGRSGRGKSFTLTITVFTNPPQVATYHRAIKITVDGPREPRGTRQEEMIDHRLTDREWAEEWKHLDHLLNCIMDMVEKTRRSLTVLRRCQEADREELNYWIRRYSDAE
Description: Preferably, for enzyme-linked immunosorbent assays (ELISA), wells of a 96 well plate were coated with 100 ng streptavidin (Dianova) in PBS over night at 4° C. […] Binding of RUNX1-containing proteins to the R3 oligonucleotide was detected with a primary anti-myc antibody (9E10, Santa Cruz) and a secondary HRP-coupled antibody (donkey anti-mouse IgG-HRP, Santa Cruz). ELISA was developed using the Sure Blue TMB Microwell Peroxidase substrate (KLP), and the reaction was stopped with sulfuric acid (1 N). Absorption at 450 nm and 650 nm was measured with the Spectra Max 340, Molecular Devices. Preferably, the ELISA assay is as further described in the experimental section.
The inhibition of NHR2 tetramerization was measured in vitro by tetramer-dependent binding of a RUNX1-NHR2 protein construct to an immobilized oligonucleotide derived from the RUNX3 promoter sequence in ELISA and ABCD assays. […] Furthermore, the influence of the inhibitors on the viability of RUNX1/ETO-dependent SKNO-1 cells was determined; as a control RUNX1/ETO-independent U937 cells were used.
The principle of the biochemical assays for measuring inhibition of NHR2 tetramerization is illustrated in FIG. 1. NHR2 tetramerization and its inhibition was measured in a purpose-built sandwich ELISA (enzyme-linked immunosorbent assay: FIG. 1A). • i) The RUNX1-NHR2 tetramer specifically binds to the biotinylated RUNX3-oligonucleotide (RUNX3-oligo^bio) that is immobilized on a streptavidine coated surface (SA). Disrupting the RUNX1-NHR2 tetramer into dimers leads to a release of the RUNX1-NHR2 protein from the surface. Antibody-conjugated horseradish peroxidase (HRP) binds to a primary anti-myc antibody (α-myc AB) that binds to the immobilized myc-labeled RUNX1-NHR2 tetramer. HRP catalyzes the conversion of 3,3′,5,5′-tetramethylbenzidine (TMB) to 3,3′,5,5-tetramethylbenzidine diimine.
Wells of a 96 well plate were coated with 100 ng streptavidin (Dianova) in PBS over night at 4° C. […] RUNX1-containing proteins were incubated with synthetic peptides or chemical compounds in binding buffer (25 mM HEPES, pH 7.5, 50 mM KCl, 1 mM EDTA, pH 8.0, 10 mM MgCl2, 5% glycerol, 1 mM DTT) in the presence of 1 μg salmon sperm and 1% IGEPAL CA-630 for 5 h and subsequently added to the streptavidin-bound R3 oligonucleotide for 15 min on the 96 well plate. Binding of RUNX1-containing proteins to the R3 oligonucleotide was detected with a primary anti-myc antibody (9E10, Santa Cruz) and a secondary HRP-coupled antibody (donkey anti-mouse IgG-HRP, Santa Cruz). ELISA was developed using the Sure Blue TMB Microwell Peroxidase substrate (KLP), and the reaction was stopped with sulfuric acid (1 N). Absorption at 450 nm and 650 nm was measured with the Spectra Max 340, Molecular Devices.

[3] = target: T3, RUNX1-BCR protein (Homo sapiens, UniProt P11274+Q01196); assay: ELISA: tetramer-dependent binding of RUNX1-BCR protein to immobilized RUNX3 oligonucleotide (selectivity control); settings: for inhibition at 2000 µM / inhibition at 1000 µM: read-out: ELISA Inhibition [%] BCR; for inhibition of binding of the RUNX1-BCR protein, ELISA: [P1]=500 μM and [PPIM]=2000 μM in ELISA
T3 construct: replacing the NHR2 domain of the construct with the homologous BCR tetramerization domain (RUNX1-BCR protein); His6 (C); made in house; host or cells: E. coli BL21(DE3)
T3 sequence (Q01196+P11274 fused): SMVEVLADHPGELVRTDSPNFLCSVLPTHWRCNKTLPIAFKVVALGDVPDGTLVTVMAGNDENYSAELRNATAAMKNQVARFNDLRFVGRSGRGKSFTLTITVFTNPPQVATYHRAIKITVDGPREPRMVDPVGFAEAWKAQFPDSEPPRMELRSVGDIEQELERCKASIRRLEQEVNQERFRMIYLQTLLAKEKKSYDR

[4] = target: T3, RUNX1-BCR protein; assay: ABCD (avidin, biotin, complex, DNA) assay with RUNX1-BCR protein; settings: for inhibition at 1000 µM: read-out: ABCD Inhibition [%] BCR; for inhibition of binding of the RUNX1-BCR protein, ABCD: c=1100 μM in ABCD assay
Description: (§1) Oligonucleotides were annealed to the corresponding unmodified antisense oligonucleotide to generate the RUNX1 binding site. Purified RUNX1 proteins were pre-incubated with a compound for 1 h at 4° C. Similarly the biotinylated double-stranded oligonucleotides were pre-incubated with streptavidin coated magnetic beads (Dynabeads M-280 Streptavidin, Invitrogen) for 1 h at 4° C. Protein/compound samples and beads with bound oligonucleotide were incubated in binding buffer (25 mM HEPES, pH 7.5, 50 mM KCl, 1 mM EDTA, pH 8.0, 10 mM MgCl2, 5% glycerol, 1 mM DTT) in the presence of 2% IGEPAL CA-630, 1 μg of salmon sperm, and 0.1% BSA for […]. After washing three times, the bound proteins were eluted from beads in SDS-PAGE sample buffer and resolved on SDS-PAGE followed by immunoblotting with a primary anti-myc (9E10, Santa Cruz) antibody and a secondary HRP-coupled antibody (goat anti-mouse IgG-HRP, Santa Cruz).

[5] = target: T2, RUNX1-NHR2 protein; assay: ABCD (avidin, biotin, complex, DNA) assay with RUNX1-NHR2 protein; settings: for inhibition at 1000 µM: read-out: ABCD Inhibition [%] NHR2; for inhibition of tetramer-dependent binding of the RUNX1-NHR2 protein to immobilized RUNX3 oligonucleotide, ABCD: c=1100 μM in ABCD assay
Description: as §1

[6] = relative inhibition at 1 mM inhibitor concentration, RUNX1-BCR
[7] = relative inhibition at 1 mM inhibitor concentration, RUNX1-NHR2 protein
[8] = measured at 2 mM concentration, RUNX1-BCR
[9] = measured at 2 mM concentration, RUNX1-NHR2 protein

- IC50 [2]: > 2000 µM
Compound: Ac-VARRCAEAAREALNYAIR-NH2 [P3, reference compound]
- inhibition of NHR2 tetramerization (reduction of BS3 cross-linked NHR2 oligomers) [1]: neither P2, P3 nor the unrelated peptide CP inhibit NHR2 tetramerization

- inhibition at 2000 µM [3, 8]: 31.5%
- inhibition at 1000 µM [4, 6]: 28.5%
- inhibition at 2000 µM [2, 9]: 94.4%
- inhibition at 1000 µM [5, 7]: 57.7%
Compound: Cc1ccc(OCC(=O)O)c(OCC(=O)O)c1 [Compound 7.3, 2-[2-(carboxymethyloxy)-4-methyl-phenoxy]acetic acid]

- dose dependence of inhibition of NHR2 tetramerization (cross-linking) [1]: dose-dependent
- inhibition of NHR2 tetramerization (reduction of BS3 cross-linked NHR2 oligomers) [1]: inhibit NHR2 tetramerization
- IC50 ([1]; read-out: IC50 of inhibition of NHR2 tetramerization (cross-linking)): 250 µM
- inhibition of binding of the RUNX1-BCR protein, ELISA [3]: is not inhibited
- inhibition at 1000 µM [3, 6]: 9.2%
- inhibition of binding of the RUNX1-BCR protein, ABCD [4]: is not inhibited
- inhibition of tetramer-dependent binding of the RUNX1-NHR2 protein to immobilized RUNX3 oligonucleotide, ELISA [2]: selectively inhibit
- IC50 [2]: 460 µM
- inhibition at 1000 µM [2, 7]: 42.8%
- inhibition of tetramer-dependent binding of the RUNX1-NHR2 protein to immobilized RUNX3 oligonucleotide, ABCD [5]: selectively inhibit
Compound: Ac-VLRRCQEADREELNYWIR-NH2 [P1, reference compound]

- inhibition at 2000 µM [3, 8]: 10%
- inhibition at 1000 µM [4, 6]: 6.1%
- inhibition at 2000 µM [2, 9]: 71.6%
- inhibition at 1000 µM [5, 7]: 47.4%
Compound: O=C(O)COc1cccc(OCC(=O)O)c1 [Compound 7.4, 2,2′-(1,3-phenylenebis(oxy))diacetic acid]

More lines, now with the values behind:

Compound: O=C(O)c1ccccc1OCc1cn2ccccc2n1 [Compound 2b, 2-(imidazo[1,2-a]pyridin-2-ylmethoxy)benzoic acid]
- inhibition at 50 µM ([3]; measured at 50 μM concentration, RUNX1-BCR): 41.5%
- inhibition at 1000 µM [4, 6]: 11.8%
- inhibition at 50 µM ([2]; measured at 50 μM concentration, RUNX1-NHR2 protein): 83.1%
- inhibition at 1000 µM [5, 7]: 49.4%

Compound: COc1cc(CC(C(=O)O)C(C)C(=O)c2ccc3c(c2)OCO3)cc(OC)c1OC (stereo not shown) [Compound 7.18, 4-(benzo[d][1,3]dioxol-5-yl)-3-methyl-4-oxo-2-(3,4,5-trimethoxybenzyl)butanoic acid]
- inhibition of binding of the RUNX1-BCR protein, ELISA [3]: is not inhibited
- inhibition at 2000 µM [3]: -6.7%
- inhibition of binding of the RUNX1-BCR protein, ABCD [4]: is not inhibited
- inhibition at 1000 µM [4]: -2.2%
- inhibition of tetramer-dependent binding of the RUNX1-NHR2 protein to immobilized RUNX3 oligonucleotide, ELISA [2]: selectively inhibit
- inhibition at 2000 µM [2]: 47.7%
- inhibition of tetramer-dependent binding of the RUNX1-NHR2 protein to immobilized RUNX3 oligonucleotide, ABCD [5]: selectively inhibit
- inhibition at 1000 µM [5]: 80.2%

Compound: O=C(CSc1nc2ccccc2[nH]1)Nc1ccc(Cl)c(C(=O)O)c1 [Compound 5.4, 5-(2-(1H-benzo[d]imidazol-2-ylthio)acetamido)-2-chlorobenzoic acid]
- inhibition at 1000 µM [3, 6]: 35.4%
- inhibition at 1000 µM [4, 6]: -3.3%
- inhibition at 1000 µM [2, 7]: 89.7%
- inhibition at 1000 µM [5, 7]: 63.9%

Compound: COc1ccc(OC)c2[nH]c(C(=O)NCC3(CC(=O)O)CCCCC3)cc12 [Compound 5.18, 2-(1-((4,7-dimethoxy-1H-indole-2-carboxamido)methyl)cyclohexyl)acetic acid]
- inhibition at 1000 µM [3, 6]: 3.9%
- inhibition at 1000 µM [4, 6]: 52.6%
- inhibition at 1000 µM [2, 7]: 80.5%
- inhibition at 1000 µM [5, 7]: 83%

Compound: Cc1oc(C(=O)O)cc1CSCc1cc(C(=O)O)oc1C [Compound 5.9, 5,5′-dimethyl-4,4′-(sulfanediylbis(methyl))-di(furan-2-carboxylic acid)]
- inhibition at 1000 µM [3, 6]: 20.7%
- inhibition at 1000 µM [4, 6]: 14.6%
- inhibition at 1000 µM [2, 7]: 51.7%
- inhibition at 1000 µM [5, 7]: 52.5%

Compound: Cc1c(CC(=O)NCCC(=O)O)c(=O)oc2c(C)c3occ(C(C)(C)C)c3cc12 [Compound 5.17, 3-(2-(3-tert-butyl-5,9-dimethyl-7-oxo-7H-furo[3,2-g]chromen-6-yl)acetamido)propanoic acid]
- inhibition at 1000 µM [3, 6]: 15.9%
- inhibition at 1000 µM [4, 6]: 95.3%
- inhibition at 1000 µM [2, 7]: 41.7%
- inhibition at 1000 µM [5, 7]: 89.5%

Compound: COc1ccc(-c2ccc(CCC(=O)O)n2CCC(=O)O)cc1 [Compound 5.8, 3,3′-(5-(4-methoxyphenyl)-1H-pyrrole-1,2-diyl)dipropanoic acid]
- inhibition at 1000 µM [3]: 12%
- inhibition at 1000 µM [4]: 56.1%
- inhibition at 1000 µM [2]: 70.3%
- inhibition at 1000 µM [5]: 68.2%
